Laboratory results taken from patent publication US20200113852A1, “METHODS OF PATIENT SELECTION AND TREATING TRXR- OR PRDX-OVEREXPRESSED CANCERS” (TRIACT THERAPEUTICS, INC., priority 2017, published 2020).
Read-outs that look alike come from different tables or passages of the source.

What was measured:
[1] = test system: metastatic triple negative breast cancer; assay: Phase 2 and Phase 3 mTNBC trials, 15-gene expression signature analysis (PFS, OS, ORR); format: in vivo, human
From the text: Formalin-fixed, paraffin-embedded (FFPE) archival samples from biopsy or surgery at original diagnosis of breast cancer were profiled on the exon-based Affymetrix Hugene1.0ST microarrays using an RNA extraction protocol adapted to the short fragment lengths resulting from RNA degradation in FFPE samples. It was considered that a corpus of n=210 patients for whom clinical outcome data was available in the form of PFS time and associated censoring statuses.
The raw gene expression data from profiling of an initial n=240 FFPE preserved samples, in the form of individual Affymetrix CEL files, was processed using […] estimation. Quality control based on average array brightness excluded 30 outlier scans, and the n=210 remaining profiles were then normalized to each other using quantile normalization. Affymetrix probesets were mapped to genes, in a manner where multiple probesets mapping into the same gene were resolved by assigning the highest intensity to the corresponding gene, this procedure reducing the set of 33,297 probe sets to 20,756 mapped genes. The data was then log 2-transformed, and standardized by mean-subtraction and division by the standard deviation across all 210 samples, for each gene separately. Finally, the data matrix was subsetted to the intersection of the oxidative response set of 102 genes with the set of genes represented on the Hugene1.0ST arrays, resulting in profiles for p=82 genes across all n=210 samples.
A multivariate Cox model using supervised principal components was used to model progression free survival times regressed on gene expression data. […]
In Eq.(1) the variables: x1, l=1, . . . , K, denote projections onto the first K principal components of the data matrix of gene expression vectors, after preliminary reduction to a subset of mtop genes out of the original set of 82, where mtop is a variable parameter, 1≤mtop≤82. For a given mtop, the subset is determined by univariate feature selection (generating a Cox model for each gene independently and selecting the mtop genes with the smallest interaction-term P-values). […]

[2] = test system: HCT116 cells; assay: Cytotoxicity assay (WST-1 cell viability); format: cell-based, human; conditions: for cytotoxicity: HCT116 without GSH depletion; for IC50: Homo sapiens
Method: Cell viability following drug treatments was assessed using WST-1 cell proliferation assay (Roche). Briefly, cells were plated into 96-well plates with 8,000 (HCT116) or 20,000 (MDA-MB-453) cells per well and allowed to attach overnight. Cells were then preincubated for 5 h in the presence or absence of 1 mM BSO. […] After 3 h of incubation at 37° C., the amount of formazan dye was quantified by measuring the optical density at 450 nm with a scanning multiwell spectrophotometer (PerkinElmer).

[3] = test system: Trx1/2 in MDA-MB-231 cells; assay: Trx redox western blot analysis; format: cell-based, human; conditions: GSH-depleted MDA-MB-231, 100 μM, 6h, increases further at 18h
Method: Quantification is obtained directly from the relative intensities of the different bands. Two forms of the redox Western blot have been developed, separating on the basis of differing charge (thiols are modified with a charged alkylating reagent) or mass (thiols are modified with a high-mass alkylating reagent). Redox analysis of the mitochondrial compartment is performed using a redox Western blot analysis of thioredoxin-2 (Trx2). Trx2 is exclusively found in mitochondria, so an analysis of a cell or tissue extract provides specific information on redox in the mitochondria without fractionation. Analysis is performed following derivatization with AMS. Trx2 contains two cysteine residues, and the addition of two molecules of AMS increases the mass by approximately 1000 Da. Oxidized and AMS derivatized forms are separated by non-reducing SDS polyacrylamide gel electrophoresis and detected by immunoblotting.

[4] = test system: TrxR in MDA-MB-231 cells; assay: Endogenous TrxR activity (DTNB reduction assay); format: cell-based, human; conditions: GSH-depleted MDA-MB-231; iniparib 100 μM, Auranofin 1 μM, up to 4 h
From the text: Initial velocities were derived from linear regression analyses and then plotted in double reciprocal plots to obtain the half time of TrxR inhibition using an one phase exponential decay analysis (Prism, GraphPad software).

[5] = test system: MDA-MB-453 cells; assay: Cytotoxicity assay (WST-1 cell viability); conditions: for IC50: Homo sapiens
Method: (§1) Cell viability following drug treatments was assessed using WST-1 cell proliferation assay (Roche) Briefly, cells were plated into 96-well plates with 8,000 (HCT116) or 20,000 (MDA-MB-453) cells per well and allowed to attach overnight. Cells were then preincubated for 5 h in the presence or absence of 1 mM BSO. […] After 3 h of incubation at 37° C., the amount of formazan dye was quantified by measuring the optical density at 450 nm with a scanning multiwell spectrophotometer (PerkinElmer).
as §1, with “(Roche).” for “(Roche)”

With `NC(=O)c1ccc(I)c([N+](=O)[O-])c1` [Iniparib, 4-iodo-3-nitrobenzamide] the median progression-free survival ([1]; biomarker-selected (sensitive) population n=53) was 5.9 months, the “objective response rate (responders)” value ([1]; resistant group) was 34% and the “objective response rate (responders)” value ([1]; sensitive group n=53) was 48%. The cytotoxicity ([2]; after 24 h, concentrations up to 100 μM) was “marginal cytotoxicity”, the cytotoxicity ([2]; up to 100 μM of Iniparib) was “no cytotoxicity was detected” and the IC50 ([2]; HCT-116, 24 h, read-out: IC50 (cytotoxicity), HCT116 cells not depleted of GSH, transitory or 24 h exposure) was greater than 100 µM. For the same compound, the IC50 ([2]; HCT-116, read-out: IC50 (cytotoxicity), HCT116, GSH depletion (Example 2)) was 8.2 µM, the IC50 ([2]; HCT-116, read-out: IC50 (cytotoxicity), HCT116 after GSH depletion with BSO (Example 1)) was 8.4 ± 0.5 µM and the Trx oxidation status [3] was “accumulation of oxidized Trx”. The TrxR reductase activity [4] was “inhibition of the TrxR reductase activity”, the IC50 ([5]; MDA-MB-453, read-out: IC50 (cytotoxicity), MDA-MB-453, GSH depletion (Example 2)) was 16.2 µM and the IC50 ([5]; MDA-MB-453, read-out: IC50 (cytotoxicity), MDA-MB-453, absence of BSO (Example 2)) was 85 µM. The IC50 ([5]; MDA-MB-453, read-out: IC50 (cytotoxicity), MDA-MB-453 after GSH depletion with BSO (Example 1)) was 17.8 ± 2.9 µM, the IC50 ([5]; MDA-MB-453, read-out: IC50 (cytotoxicity), MDA-MB-453 without BSO pre-treatment, 48 h (Example 1)) was 84 ± 6.5 µM and the “augmentation of cytotoxicity by GSH depletion” value ([5]; MDA-MB-453, BSO vs no BSO) was 4 fold.
